These results are taken from patent US9556113B2, “Combination uses of dichloroacetate and oxamate, and their prodrugs, for cancer treatment” (The South Dakota Board of Regents, priority 2014, dated 2017).

SMILES strings stand for the structures.

Assay [1] relates to E6E7/Ras MTE cells. The assay can be described thus: Clonogenic growth (colony formation). As to conditions: 7 days; for number of colonies compared to DCA treated cultures (FIG. 4C): 5 mM prodrug vs 10 mM DCA; for colony size (FIG. 4B): 5 mM prodrugs, 10 mM DCA, vs DMSO. It counts as cell-based, mouse. The procedure:
(§1) FIG. 4 illustrates prodrugs AT-N4-001 and AT-N4-002 inhibiting cell proliferation and colony growth of E6E7/Ras MTE cells. (A) E6E7/Ras MTE cultures were treated with DMSO (Con), AT-N4-001, or AT-N4-[…] 002 at the indicated concentration for one day. Live cell number was then determined using a trypan blue exclusion assay. (B) E6E7/Ras MTE cells were seeded on 100-mm plate at 500 cells per plate (in triplicate). After one day, cells were treated as indicated and allowed to grow until colonies of untreated controls reached 50 or more cells (7 days). Plates were stained with Coomassie blue to visualize the colonies. (C) Quantification of colonies described in B. Colonies with more than 15 cells were counted.
(§2) E6E7/Ras MTE cells are mouse tonsilar epithelial cells that have been transformed by HPV oncogenes E6 and E7 together with activated ras. They form tumors in mice and are a model of human HPV+HNSCC. These cells were treated in culture with either vehicle control (DMSO), AT-N4-001, or AT-N4-002 at concentrations of 1 mM, 2.5 mM and 5 mM for one day. Live cells were counted using a hemocytometer (FIG. 4A). […] The effects of the compounds on clonogenic growth of the cells were also tested. E6/E7/Ras MTE cells were seeded in 100 mm plates in triplicate, and the next day cells were treated with either vehicle control DMSO, 5 mM AT-N4-001, 5 mM AT-N4-002, or 10 mM DCA. DCA was used at a twice the concentration because the prodrugs each carry two molecules of DCA.

Assay [2] concerns HPV+E6E7 Ras tumor (E6/E7/Ras MOEs cells). The assay can be described thus: Tumor response to cisplatin/radiation therapy (CRT), HPV positive HNSCC mouse model. The format is in vivo, C57Bl/6 mice. As to conditions: for tumor growth with CRT compared to DCA plus oxamate (FIG. 8A/19): prodrug 7.6 mg/mouse i.p. weekdays, control DCA 6 mg/mouse + oxamate 2 (2.2) mg/mouse, all with CRT. The procedure: FIG. 7 illustrates the effects of DCA plus oxamate on tumor growth (A) or on survival (B) with HPV+ model of HNSCC in wild-type C57Bl/6 mice. All mice received 3 rounds of cisplatin (0.132 mg/mouse) plus radiation (8 Gy/mouse) treatment (Tx) at weekly intervals starting […] after tumor initiation. Mice receiving DCA (6 mg/mouse) plus oxamate (15 mg/mouse) were treated every weekday, starting with the first chemoradiation treatment by i.p. injection.
FIG. 8 illustrates a comparison of prodrugs to DCA plus oxamate on tumor growth (A) or on survival (B) with HPV+ model of HNSCC in wild-type C57Bl/6 mice. All mice received 3 rounds of CRT [cisplatin (0.132 mg/mouse) plus radiation (8 Gy/mouse) treatment (Tx) at weekly intervals starting 11 days after tumor initiation]. Mice receiving DCA (6 mg/mouse) plus oxamate (2.2 mg/mouse) were treated every weekday starting with the first chemoradiation treatment by i.p. injection. Mice treated with AT-N4-001 or AT-N4-002 prodrugs (7.6 mg/mouse) were treated on the same schedule as mice treated with DCA+oxamate.
FIG. 18. The effects of DCA, oxamate, DCA plus oxamate on the responses of HPV+E6E7 Ras tumor to CRT. One million E6/E7/Ras MOEs cells were injected subcutaneously into the rear leg of wild-type C57Bl/6 mice. After 11 days, a treatment with DCA (6 mg/mouse) and oxamate (15 mg/mouse) were injected daily by i.p. on weekdays for the remainder of the experiment. All mice received three rounds of treatment with CRT (0.132 mg/mouse cisplatin and 8 Gy radiation, weekly starting at day 11). Tumor volume is mm^3.
FIG. 19 depicts the effects of DCA plus oxamate vs the effects of prodrug 1 or prodrug 2 on the responses of HPV+E6E7 Ras tumor to CRT. Tumors were initiated by injecting 0.5×10^6 E6/E7/Ras MOEs cells. After 11 days, a treatment with DCA (6 mg/mouse) plus oxamate (2 mg/mouse), or prodrug 1 (7.6 mg/mouse), or prodrug 2 (7.6 mg/mouse) was initiated daily by i.p. on weekdays. The doses of DCA and oxamate were equal molar equivalents as would be released from the prodrugs. All mice received three rounds of treatment with CRT (0.132 mg/mouse cisplatin and 8 Gy radiation, weekly starting at day 11). Tumor volume is in mm^3.
The effects of various treatments on tumor responses were carried out by examining whether the treatment could improve tumor's response to CRT with a HPV positive HNSCCs mouse model. CRT is a standard treatment for HPV-positive HNSCC in the clinic (46). […] Applicants also used this model to investigate the effects of lactate on CRT-induced immune-mediated cancer clearance (46) and DCA's effect on the tumor's response to CRT (unpublished data). The literature reported dosages of DCA and oxamate were used (6,23,52,53)(41).
To study the effects of the prodrugs on tumor growth in vivo, C57Bl/6 immune-competent mice implanted with E6/E7/Ras MOEs cells were used as described previously (46). All experiments were performed in accordance with institutional and national guidelines and regulations with the protocol approved by the Animal Care and Use Committee at Sanford Research. Briefly, 1×10^6 tumor HPV+HNSCC cells were injected into the right subcutaneous flank of syngeneic male C57Bl/6 mice. Eleven days after tumor initiation, treatment was initiated daily on weekdays by i.p. injection of vehicle, DCA, Oxamate, DCA+oxamate, prodrug 1, or prodrug 2. All mice received three rounds of treatment with cisplatin/radiation therapy (CRT: 0.132 mg/mouse cisplatin and 8 Gy radiation, weekly starting at day 11). Tumor dimensions were measured weekly to monitor growth. Mice with tumors reaching a volume of 3000 mm^3 or becoming substantially emaciated were euthanized.
To study the effects of the new prodrugs on tumor growth in vivo, C57Bl/6 immune-competent mice were used. Tumors were established on the right flank of the leg. After 11 days, treatment was initiated with daily i.p. injection of vehicle, AT-N4-001, or AT-N4-002. […]

Assay [3] has as its system E6E7/Ras MTE cells. The assay can be described thus: Live cell number, trypan blue exclusion assay. The format is cell-based, mouse. As to conditions: 1 mM, 2.5 mM and 5 mM, one day, vs DMSO. The procedure: as §1
as §2, with “DCA was used at a twice the concentration because the prodrugs each carry two molecules of DCA.” left out

For the molecule `NC(=O)C(=O)OC(COC(=O)C(Cl)Cl)COC(=O)C(Cl)Cl` [AT-N4-001, 2-(2-Amino-2-oxoacetoxy)propane-1,3-diyl bis(2,2-dichloroacetate)], the “number of colonies compared to DCA treated cultures (FIG. 4C)” value in the assay with E6E7/Ras MTE cells [1] is “significantly lower”. Further, the “colony size (FIG. 4B)” value in the assay with E6E7/Ras MTE cells [1] is reported as “approximately equal reductions in colony size”. Moreover, the “tumor growth with CRT compared to DCA plus oxamate (FIG. 8A/19)” value is on record as “initially reduced tumor growth compared to CRT+DCA+oxamate control, but this was not maintained over longer times” in assay [2] and “about equally potent as that of the combination” in assay [2] (listed as prodrug 1). Also, the “live cell number (FIG. 4A)” value with E6E7/Ras MTE cells [3] is recorded as “significant reductions in live cell number”.
For `NC(=O)C(=O)OCC(COC(=O)C(Cl)Cl)OC(=O)C(Cl)Cl` (centres unmarked) [AT-N4-002, 3-(2-amino-2-oxoacetoxy)propane-1,2-diyl bis(2,2-dichloroacetate)], in the assay with E6E7/Ras MTE cells [1], the “number of colonies compared to DCA treated cultures (FIG. 4C)” value is on record as “significantly lower” and the “colony size (FIG. 4B)” value is on record as “approximately equal reductions in colony size”. Also, the “long-term survival (FIG. 8B)” value in assay [2] (CRT + 7.6 mg/mouse i.p.) is given as about 25%. Also, the “tumor growth with CRT compared to DCA plus oxamate (FIG. 8A/19)” value in assay [2] was “reduced average tumor growth compared to the control during the entire experiment”. The “tumor growth with CRT compared to DCA plus oxamate (FIG. 8A/19)” value in assay [2] (listed as Prodrug 2) is reported as “more effective than DCA plus oxamate during the entire experiment”. In addition, the “live cell number (FIG. 4A)” value with E6E7/Ras MTE cells [3] is on record as “significant reductions in live cell number”.
